The subject of data set [1] is primary human fibroblasts. In words: Cell viability study in primary human fibroblasts. It is filed as cell-based. The conditions noted are these: increasing concentrations, 48 h, relative to the untreated control. As to the method:
Primary human fibroblast (seeded at density 5,000 cells/well) and primary human keratinocytes (at density 2,000 cells/well) were used for the cytotoxicity studies in vitro. The culture media used for the keratinocytes was keratinocyte serum free medium supplemented with L-glutamine, EGF and BPE while that for fibroblasts was Dulbecco's Modified Eagle's Medium-high glucose supplemented with 2% penicillin/streptomycin and 5% FBS. Cells were incubated in a humidified incubator under 5% CO2 at 37° C. After 24 h, 50 μL of the media were withdrawn and replaced by 50 ul of increasing concentrations of each treatment reaching a final volume of 100 μL in the well. Cells were incubated for 48 h under standard cell culture conditions after which cell viability was assessed by AB assay as previously described.

Data set [2] relates to BMDM. In words: Viability of BMDM after 48 h treatment. It is filed as cell-based. As to the method: Immune cells system as macrophages and dendritic cells are responsible for the initiation of immune responses, and are the prime target for immunostimulatory drugs. To verify that the HA-RES conjugate is not toxic for immune cells, BMDM were treated with increasing concentrations of RES or HA-RES for 48 h.
The inventors also tested the effect of BEX and its HA conjugate on the viability of BMDM by exposing them to increasing concentration ranging from (0.39-50 μM).

Data set [3] relates to B16F10-Luc melanoma cells. In words: Cytotoxicity study on B16F10-Luc cells. It is filed as cell-based. The note with it: 48 h. As to the method:
(§1) 5×10^3 B16F10-Luc cells were seeded in 96 well plates and allowed to adhere overnight. For establishment for a coculture, B16F10 cells were cocultured with BMDM at a ratio of 1:10 (5×10^3 B16F10: 5×10^4 BMDM per well). The next day, the media was aspirated and replaced with increasing concentration of the free drugs, combination and the HA-conjugates with equivalent free drug concentrations and cells were incubated with the drug solutions for 48 h after which the treatment was aspirated and replaced with 0.5% Xenolight-D-luciferin potassium salt solution in complete DMEM. Finally, cellular viability was assessed by reading the luminescence of the solution from each well after 5 min using BioTek plate reader. Untreated cells were used as controls.

Data set [4] has as its system BMDM. In words: BMDM polarization (M1/M2 marker expression). The conditions noted are these: 48 hr, vs untreated cells. Format: cell-based. Here is the method:
To further elucidate the effect of HA-RES and HA-BEX and their combination on macrophage phenotyping the inventors studied their effect on macrophage polarization. BMDMs were treated with different concentrations of RES and HA-RES for 48 hr. (FIG. 6A)
The expression of several markers associated with M1 and M2 phenotypes was evaluated.

The subject of data set [5] is B16F10-Luc melanoma cells cocultured with BMDM. In words: Cytotoxicity study, B16F10-Luc cocultured with BMDM. Format: cell-based. The note with it: coculture with BMDM; compared with B16F10 alone. As to the method:
as §1

Data set [6] has as its system A431 cells. In words: In vitro cytotoxicity on A431 cells. It is filed as cell-based. The note with it: Homo sapiens, A-431; 48 h, alamar blue. Background: Resazurin is reduced to fluorescent resorufin, in cell work by metabolically active cells.
Experimental: A431 cells were cultured in DMEM media supplemented with 10% FBS, 1% Pen Strep. The cells were passaged 3-4 times prior to setting up the assay. […] Cells were cultured in a humidified incubator maintained at 37° C. and 5% C02 (Thermo scientific, USA). A431 Cells (5×10^3 in 100 ul in complete DMEM) were seeded in 96 well plates and allowed to adhere overnight. The next day, cell culture media was aspirated and replaced with the different treatments. The cells were incubated with the drug solutions for 48 hr after which the treatment was aspirated and replaced with 10% alamar blue (AB) solution in complete DMEM and incubated for an additional 3.5 h in the dark at 37° C. […] Finally, cellular viability was assessed by reading the florescence of the solution from each well at λex=560 nm and λem=590 nm. […] Baseline fluorescence levels from wells without cells were subtracted from each data (Dose response curves were fit to each drug and/or polymer drug conjugate with the median effect model^[28]. For combination treatment, synergy was quantified with the combination index^[29]
The conditions of data set [7]: background statement; cited from earlier work.

Results on three compounds are retold here after patent US20230102840A1, “COMPOSITIONS AND METHODS RELATING TO COMBINATORIAL HYALURONIC ACID CONJUGATES” (PRESIDENT AND FELLOWS OF HARVARD COLLEGE, priority 2020, published 2023).

Broadly, the IC50 is the concentration at which inhibition is half-maximal. Usually aqueous solubility stands for the concentration that dissolves in the medium under given conditions.

SMILES strings stand for the structures. Converted amounts (≈) assume the structure as drawn.

Consider `O=C(CCCCCCC(=O)Nc1ccccc1)NO` [VOR, Vorinostat], for which the “viability of primary human dermal fibroblasts” value in data set [1] was “did not significantly affect the cell viability”.

As for `CCOCc1nc2c(N)nc3ccccc3c2n1CC(C)(C)O` [RES, Resiquimod], the “viability of BMDM” value in data set [2] (increasing concentrations, 48 h, all concentrations tested) is on record as “marked increase in cell viability”. Also, in data set [3] (B16F10-Luc alone), the “cytotoxic effect on melanoma cells” value is on record as “negligible cytotoxic effect”.

In the case of `C=C(c1ccc(C(=O)O)cc1)c1cc2c(cc1C)C(C)(C)CCC2(C)C` [BEX, Bexarotene], the “viability of BMDM” value in data set [2] (50 uM) is “significant decrease in the cells viability”; in data set [2] (all concentrations tested up to 25 uM (range 0.39-50 μM)), “didn't alter the viability”. Moreover, the “expression of CD206 (M2 marker)” value in data set [4] was “significant reduction”. Moreover, the IC50 in data set [3] (Mus musculus, B16-F10, luminescence viability) stood at 25 µM; in data set [6], 60.3 µM. The “IC50 in the presence of MAC” value in data set [5] is reported as “same IC50”. Further, the “viability of primary human dermal fibroblasts” value in data set [1] is recorded as “did not significantly affect the cell viability”. In data set [7], the aqueous solubility is roughly 10 µM (≈ 3.48 µg/mL).
